In patent US10060908B2, “Oxidized cardiolipin as a pro-inflammatory factor” (MEDIRISTA BIOTECHNOLOGIES AB, priority 2008, dated 2018):

Legend:
VCAM-1 (CD106) = assay: Adhesion molecule expression by endothelial cells, flow cytometry (VCAM-1); format: cell-based, human; conditions: HUVECs, 24 h
Procedure: (§1) Pooled human umbilical vascular endothelial cells (HUVECs) at passage 2 were purchased from Cascade Biologics, Inc (Portland, Ore). Cultures were maintained in EGM™ phenol red-free medium (Clonetics, San Diego, Calif.), containing 2% of fetal bovine serum and supplements, at 37° C. under humidified 5% CO2 conditions. All experiments were performed at passage 3 to 5. HUVECs were seeded at 6×10^4 cells/2 mL density on 6-well plates (NUNC Inc, Naperville, Ill.). After allowing endothelial cells overnight for attachment, cells were ready for stimulation.
(§2) After washing with PBS, OxCL and reduced CL (20 ug/ml) were added. For annexin A5 (From Bender MedSystems GmbH, Austria) inhibition study, OxCL was incubated with Annexin A5 (10 ug/ml) for half hour before adding to cells. After 24 hours incubation, detached floating cells were washed away, cell were harvested into Falcon FACS tubes. […] The intercellular adhesion molecule (ICAM-1) CD54 and the vascular cell adhesion molecule (VCAM-1) CD106 were studied with flow cytometry analysis equipped with CellQuest software. For each sample, 10,000 events were analyzed.

[1] = test system: THP-1 differentiated macrophages; assay: Uptake of Dil-labeled OxLDL in macrophages, flow cytometry; format: cell-based, human; conditions: competitor 40, 80 ug/ml (LDL 40 ug/ml), Dil-OxLDL 5 ug/ml, 4 hours
Procedure: OxLDL (Industrylane Frederick) were incubated with Dil (Molecular Probes Engene, Oregon, USA) in lipoprotein-deficient serum (Sigma) at 37° C. for 15 hours. Then dialyzed against saline-EDTA buffer for 6 hours.
Uptake of Dil-labelled OxLDL was studied either by Flow cytometry or Fluorescence/confocal microscopy. For microscopy, The macrophages 1×10^6 were grown overnight on culture slides (Nunc, Naperville, N.Y.), For flow cytometry, The macrophages were plated in a 6-well plate at density of 1×10^6 cells/well in DMEM (INVITROGEN, USA) containing 10% FBS overnight. […] Thereafter, the cells from above were washed 4 times with 0.2% BSA/PBS and once with PBS. The cells were harvested in PBS containing 0.1% BSA and 0.01% NaN3. Mean fluorescence intensity was measured by flow cytometry (BD Biosciences, San Jose, Calif., USA). For each sample, fluorescence emission above 550 nm was measured and a minimum of 10.000 cells was analyzed.

Annexin A5 = molecular target: T1, Annexin A5 (Homo sapiens, UniProt P08758); assay: ELISA for Annexin A5 binding to coated cardiolipins; conditions: lipid 5 ug/ml coated overnight; Annexin A5 0.32-10.24 ug/ml
T1 construct: purchased Bender MedSystems GmbH, Austria
T1 sequence (P08758 1-320): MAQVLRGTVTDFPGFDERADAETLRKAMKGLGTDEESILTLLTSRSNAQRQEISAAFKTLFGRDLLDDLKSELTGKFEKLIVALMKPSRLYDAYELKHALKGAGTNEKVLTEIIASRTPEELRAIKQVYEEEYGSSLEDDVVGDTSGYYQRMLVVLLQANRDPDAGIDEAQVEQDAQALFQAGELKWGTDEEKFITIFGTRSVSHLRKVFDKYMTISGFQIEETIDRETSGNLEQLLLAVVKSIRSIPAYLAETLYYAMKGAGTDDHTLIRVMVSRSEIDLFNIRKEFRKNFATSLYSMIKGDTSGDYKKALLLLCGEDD
Procedure: After five washings with PBS, the plates were blocked with 2% PBS-BSA for 2 h at room temperature. Annexin A5 were added and incubated for 1 hour. After washing, bound annexin A5 was detected by incubating subsequently with rabbit anti-human annexin V polyclonal antibodies (Hyphen Biomed, Andresy, France) 1:2000 and polyclonal goat anti-rabbit Immunoglobulins/AP (DakoCytomation) 1:3000 were used. The reaction was developed with alkaline phosphatase substrate (Sigma), and optical density (OD) was read at 405 nm with an ELISA Multiscan Plus spectrophotometer (Molecular Devices Emax, San Francisco). All samples were measured in duplicates and the coefficient of variation was below 15%.

neutrophils = assay: Intracellular calcium mobilization, FURA-2AM fluorometer; format: cell-based, human; conditions: for MFI of calcium mobilization: within 120 seconds
Procedure: (§3) Human PMNs were isolated from freshly prepared buffy coats (Karolinska Hospital blood bank, Stockholm, Sweden) by dextran sedimentation, hypotonic lysis of erythrocytes and gradient centrifugation on Lymphoprep (Axis-Shield PoC AS, Oslo, Norway). PMNs were suspended at a density of 10×10^6/ml in Dulbecco's PBS (Gibco (Invitrogen), Paisley, UK). PMN purity (>95%) and viability (>98%) was determined using Hemacolor (J. T. Baker, Utrecht, Holland) and Trypan Blue (Sigma Chemical Co.) staining, respectively.
Neutrophils were added into black, 96-well plates with transparent bottom (Corning Costar; 5×10^4 cells/well), and spin down the plate at 120×g for 3 min, afterwards changing the medium containing 4 μM FURA-2AM (Fura-2 acetoxymethyl ester), or buffer as appropriate, and the cells were incubated for 30 min at 37° C. and 5% CO2. Cells were washed four times with 50 μl of a buffer solution (135 mM NaCl, 4.6 mM KCl, 1.2 mM MgCl2, 1.5 mM CaCl2, 11 mM glucose, 11 mM Hepes, pH 7.4) before a final 45 μl volume of buffer was added to each well.
The plates were transferred to a fluorometer (Fluostar™, BMG Technologies), and 50 μl of different agonists according to experimental designs or buffer solution as control were injected into individual wells and the cells were monitored for the next 120 seconds. Control wells containing cells that had not been exposed to FURA-2AM were used to subtract background auto-fluorescence. The results are given as the ratio of mean fluorescence intensity (MFI) between 340 and 380 nm, and normalized by control.

IL-6 = IL-6 production by HUVEC, protein multiplex immunoassay; format: cell-based, human; conditions: HUVECs, 24 h; for IL-6 levels of the substance alone compared with the control group: 20 ug/ml
Procedure: HUVEC cells from above were seeded at density 10^6/2 ml into 6 well plates. Allowing cells attachment for 24 hours, OxCL (20 ug/ml) with or without Annexin A5 (20 ug/ml) and reduced CL were added and incubated for 24 hours. Cell supernatant were collected and IL-6 and IL-8 production were measured with protein multiplex immunoassay kits (from Bioscource, USA) and Bio-PIei™ system (BioRad, USA).

leukotriene B4 = assay: Leukotriene B4 release from neutrophils, EIA; format: cell-based; conditions: human neutrophils
Procedure: as §3
(§4) Analysis of leukotriene B4 Biosynthesis by EIA kit 2×10^6 macrophages were incubated with different agents according to the experimental design, and then quenched with an equal volume methanol. After acidified to pH 3-4, the samples were purified by solid-phase extraction (Supelclean™ LC-18, Supelco) and eluted in methanol. After dried under nitrogen, the samples were re-suspended in EIA buffer. The level of LTB4 was determined with LTB4 EIA kit (Cayman Chemical) by using dilutions within the linear portion of the standard curve.

ICAM-1 (CD54) = assay: Adhesion molecule expression by endothelial cells, flow cytometry (ICAM-1); format: cell-based, human; conditions: HUVECs, 24 h
Procedure: as §1, §2

CD8-positive T-cells = assay: Activation of CD8-positive T cells (CD69), flow cytometry; format: cell-based; conditions: human PBMC, 5 ug/ml over night
Procedure: Both CD4 and CD8 positive T cells were studied. Quadrant Q2 represent (%) T-cells positive for CD69 expressing and thus activated T-cells.
Both CD4 and CD8 positive T-cells from the cell line Human PBMC where studied in an incubation setup illustrated in FIG. 11A-F. Both T-cell types where incubated with, buffer (control), oxCL or CL to determine the effect on activation, interpreted by the expression of CD69 surface molecule after stimulation.
In this experiment the attention must be drawn to the quadrant Q2 of the flow cytometry data shown. This quadrant represents the percentage of T-cells in the population tested to be CD69 positive, e.g. activated by the stimuli prior to the data collection.

LTB4 = assay: Leukotriene B4 biosynthesis in macrophages, EIA; format: cell-based; conditions: human monocyte-derived macrophages
Procedure: Human mononuclear cells were isolated from freshly prepared buffy coats (Karolinska Hospital blood bank, Stockholm, Sweden) by gradient centrifugation on Ficoll-Paque (Amersham Biosciences, Uppsala, Sweden). The mononuclear cells were cultured at a density of 5×10^6/ml in RPMI-1640 medium with 25 mM Hepes, 1% L-glutamine, 1% penicillin-streptomycin and 10% FBS. After 7 days, there are proximate 2×10^6 macrophages per well.
as §4

[2] = oxCL 20 ug/ml preincubated with Annexin A5 10 ug/ml

For Cardiolipin [CL], the VCAM-1 expression (VCAM-1 (CD106); 20 ug/ml) was “did not show the same effect”, the “competition of dil-oxLDL uptake (in words)” value [1] was “did not show the competition effetcts” and the “binding to Annexin A5” value (Annexin A5) was “can bind”. The “MFI of calcium mobilization” value (neutrophils) was “did not increase”, the “IL-6 levels of the substance alone compared with the control group” value (IL-6) was “could not significantly increase” and the “leukotriene B4 release” value (leukotriene B4) was “did not show the similar reaction”. The ICAM-1 expression (ICAM-1 (CD54); 20 ug/ml) was “did not show the same effect” and the “CD69 expression (activation) of CD8-positive T cells” value (CD8-positive T-cells) was “not”.

Hydro heart cardiolipin [reduced CL] was tested, and the “competition of dil-oxLDL uptake (in words)” value [1] was “not” and the “binding to Annexin A5” value (Annexin A5) was “could not bind”.

B1: Annexin A5: member of the Annexin superfamily with anti-thrombotic properties; from Bender MedSystems (protein, UniProt P08758 2-320, looked up)
Annexin A5: AQVLRGTVTDFPGFDERADAETLRKAMKGLGTDEESILTLLTSRSNAQRQEISAAFKTLFGRDLLDDLKSELTGKFEKLIVALMKPSRLYDAYELKHALKGAGTNEKVLTEIIASRTPEELRAIKQVYEEEYGSSLEDDVVGDTSGYYQRMLVVLLQANRDPDAGIDEAQVEQDAQALFQAGELKWGTDEEKFITIFGTRSVSHLRKVFDKYMTISGFQIEETIDRETSGNLEQLLLAVVKSIRSIPAYLAETLYYAMKGAGTDDHTLIRVMVSRSEIDLFNIRKEFRKNFATSLYSMIKGDTSGDYKKALLLLCGEDD
With B1 the “inhibition of oxCL-induced VCAM-1 (CD106) expression” value (VCAM-1 (CD106); [2]) was “significantly inhibited”, the “inhibition of oxCL-induced calcium mobilization” value (neutrophils; oxCL incubated with Annexin A5) was “greatly inhibited” and the “MFI of calcium mobilization” value (neutrophils) was “did not increase”. The “IL-6 levels of the substance alone compared with the control group” value (IL-6) was “could not significantly increase”, the “IL-6 level, oxCL with Annexin A5” value (IL-6; oxCL 20 ug/ml with Annexin A5 20 ug/ml) was 276.4 ± 28.62 pg/mL and the “inhibition of oxCL-induced ICAM-1 (CD54) expression” value (ICAM-1 (CD54); [2]) was “significantly inhibited”. The “inhibition of OxCL-induced LTB4 production” value (LTB4) was “greatly inhibited”.
